Test results from patent US7662825B2, “N-pyrazinyl-phenylsulphonamides and their use in the treatment of chemokine mediated diseases” (AstraZeneca AB, priority 2002, dated 2010).

Question: For `COc1nc(OCc2cc(C)on2)cnc1NS(=O)(=O)c1cccc(Cl)c1Cl` [Example 174], which melting point is on record?
Answer: The melting point was 142 to 143 °C.

Question: With `COc1nccnc1NS(=O)(=O)c1cccc(F)c1Cl` [Example 131, 2-Chloro-3-fluoro-N-(3-methoxy-2-pyrazinyl)benzenesulphonamide] as the compound, how does the melting point read?
Answer: The melting point was 144 to 145 °C.

Question: With `COc1nc(S(C)(=O)=O)cnc1NS(=O)(=O)c1cccc(Cl)c1Cl` [Example 203, 2,3-Dichloro-N-(5-methanesulphonyl-3-methoxy-2-pyrazinyl)benzenesulphonamide] as the compound, how does the melting point read?
Answer: Its melting point is 237 to 238 °C.

Question: With `COc1nc(Cl)cnc1NS(=O)(=O)c1ccccc1Cl` [Example 51, 2-Chloro-N-(5-chloro-3-methoxy-2-pyrazinyl)benzenesulphonamide] as the compound, how does the melting point read?
Answer: Its melting point is 190 to 192 °C.

Question: With `COc1nc(COc2cnccn2)cnc1NS(=O)(=O)c1cccc(Cl)c1Cl` [Example 140, 2,3-Dichloro-N-{3-methoxy-5-[(pyrazinyloxy)methyl]-2-pyrazinyl}benzenesulphonamide] as the compound, how does the melting point read?
Answer: Its melting point is 155 °C (dec.).

Question: With `COc1nc(SCc2ccc(F)cc2)cnc1NS(=O)(=O)c1cccc(Cl)c1Cl` [Example 170, 2,3-Dichloro-N-[5-(4-fluorobenzylsulphanyl)-3-methoxy-2-pyrazinyl]benzenesulphonamide] as the compound, how does the melting point read?
Answer: Its melting point is 119 to 120 °C.

Question: For `CN(C)Cc1ccc(COc2ncc(Cl)nc2NS(=O)(=O)c2cccc(Cl)c2Cl)o1` [Example 180, 2,3-Dichloro-N-[6-chloro-3-(5-dimethylaminomethyl-2-furanylmethoxy)-2-pyrazinyl]benzenesulphonamide], which melting point is on record?
Answer: The melting point was 209 to 210 °C.

Question: Which melting point does the source give for `COc1ncc(C)nc1NS(=O)(=O)c1cccc(Cl)c1Cl` [Example 194, 2,3-Dichloro-N-(3-methoxy-6-methyl-2-pyrazinyl)benzenesulphonamide] here?
Answer: The melting point was 50 to 60 °C.

Question: Which melting point does the source give for `C#CCOc1nccnc1NS(=O)(=O)c1cccc(Cl)c1Cl` [Example 189, 2,3-Dichloro-N-[3-(2-propynyloxy)-2-pyrazinyl)benzenesulphonamide] here?
Answer: The melting point was 153 to 154 °C.

Question: Which melting point does the source give for `CC(Oc1nc(Cl)cnc1NS(=O)(=O)c1cccc(Cl)c1Cl)C1CC1` (stereo not shown) [Example 208] here?
Answer: The melting point was 161 to 162 °C.

Question: With `NCc1ccc(COc2nc(Cl)cnc2NS(=O)(=O)c2cccc(Cl)c2Cl)o1` [Example 196, N-(3-(5-Aminomethyl-2-furanylmethoxy)-5-chloro-2-pyrazinyl)-2,3-dichloro-benzenesulphonamide] as the compound, how does the melting point read?
Answer: Its melting point is 201 to 202 °C.

Question: Which melting point does the source give for `COCCNc1nc(OC)c(NS(=O)(=O)c2cccc(Cl)c2Cl)nc1Cl` [Example 75, 2,3-Dichloro-N-{6-chloro-3-methoxy-5-([2-methoxyethyl)amino]-2-pyrazinyl}benzenesulphonamide] here?
Answer: Its melting point is 177 to 178 °C.

Question: With `O=S(=O)(Nc1ncc(Br)nc1OC[C@@H]1CCCN1)c1cccc(Cl)c1Cl` [Example 133, N-[5-Bromo-3-[(2S)-2-pyrrolidinylmethoxy]-2-pyrazinyl]-2,3-dichlorobenzenesulphonamide] as the compound, how does the melting point read?
Answer: Its melting point is 199 to 200 °C.

Question: Which melting point does the source give for `O=S(=O)(Nc1ncc(Cl)nc1OCc1cncnc1)c1cccc(Cl)c1Cl` [Example 37, N-[5-Chloro-3-(5-pyrimidinylmethoxy)-2-pyrazinyl]-2,3-dichlorobenzenesulphonamide] here?
Answer: Its melting point is 205 to 206 °C.

Question: Which melting point does the source give for `O=S(=O)(Nc1ncc(Br)nc1OCc1cccnn1)c1cccc(Cl)c1Cl` [Example 33] here?
Answer: The melting point was 115 to 120 °C.

Question: Which melting point does the source give for `CCN(CC)C(=O)COc1cnc(NS(=O)(=O)c2cccc(Cl)c2Cl)c(OC)n1` [Example 204, 2-[5-(2,3-Dichlorobenzenesulphonylamino)-6-methoxy-2-pyrazinyloxy]-N,N-diethyl-acetamide] here?
Answer: The melting point was 117 to 118 °C.

Question: Which melting point does the source give for `COc1ncc(Cl)nc1NS(=O)(=O)c1ccc(Cl)c(Cl)c1` [Example 42, N-(6-Chloro-3-methoxy-2-pyrazinyl)-3,4-dichlorobenezenesulphonamide] here?
Answer: The melting point was 176 to 177 °C.

Question: With `COc1nc(Cl)cnc1NS(=O)(=O)c1cccc(F)c1Cl` [Example 130, 2-Chloro-N-(5-chloro-3-methoxy-2-pyrazinyl)-3-fluorobenzenesulphonamide] as the compound, how does the melting point read?
Answer: The melting point was 159 to 159.5 °C.

Question: For `O=S(=O)(Nc1nc(Cl)cnc1Br)c1cccc(Cl)c1Cl` [Example 98], which melting point is on record?
Answer: Its melting point is 123 to 124 °C.

Question: With `COc1nc(-n2cncn2)cnc1NS(=O)(=O)c1cccc(Cl)c1Cl` [Example 167, 2,3-Dichloro-N-[3-methoxy-5-([1,2,4]-1-triazolyl)-2-pyrazinyl]benzenesulphonamide] as the compound, how does the melting point read?
Answer: Its melting point is 248 to 249 °C.

Question: With `O=S(=O)(Nc1nc(Cl)cnc1OCc1ccccn1)c1cccc(Cl)c1Cl` [Example 100, 2,3-Dichloro-N-[6-chloro-3-(2-pyridinylmethoxy)-2-pyrazinyl]benzenesulphonamide] as the compound, how does the melting point read?
Answer: Its melting point is 201 to 203 °C.

Question: Which melting point does the source give for `Cc1cnc(NS(=O)(=O)c2cccc(Cl)c2Cl)c(OCc2ccco2)n1` [Example 20, 2,3-Dichloro-N-[3-(2-furanylmethoxy)-5-methyl-2-pyrazinyl]benzenesulphonamide] here?
Answer: The melting point was 127 to 129 °C.

Question: For `O=S(=O)(Nc1ncc(Br)nc1OCc1cncnc1)c1cccc(Cl)c1Cl` [Example 35, N-[5-Bromo-3-(5-pyrimidinylmethoxy)-2-pyrazinyl]-2,3-dichlorobenzenesulphonamide], which melting point is on record?
Answer: Its melting point is 208 to 209 °C.

Question: With `CCOc1cnc(NS(=O)(=O)c2cccc(Cl)c2Cl)c(OC)n1` [Example 166, 2,3-Dichloro-N-(5-ethoxy-3-methoxy-2-pyrazinyl)benzenesulphonamide] as the compound, how does the melting point read?
Answer: Its melting point is 96 to 97 °C.

Question: For `O=S(=O)(Nc1ncc(Cl)nc1OCc1cncc(Br)c1)c1cccc(Cl)c1Cl` [Example 142, N-{3-[(5-Bromo-3-pyridinyl)methoxy]-5-chloro-2-pyrazinyl}-2,3-dichlorobenzenesulphonamide], which melting point is on record?
Answer: The melting point was 199 to 201 °C.

Question: For `COc1nc(C(C)(C)O)cnc1NS(=O)(=O)c1cccc(Cl)c1Cl` [Example 114, 2,3-Dichloro-N-[5-(1-hydroxy-1-methylethyl)-3-methoxy-2-pyrazinyl]benzenesulphonamide], which melting point is on record?
Answer: Its melting point is 192 to 193 °C.

Question: Which melting point does the source give for `O=S(=O)(Nc1ncc(-c2ccncc2)nc1OCc1cccnc1)c1cccc(Cl)c1Cl` [Example 136, 2,3-Dichloro-N-[5-(4-pyridinyl)-3-(3-pyridinylmethoxy)-2-pyrazinyl]benzenesulphonaminde] here?
Answer: Its melting point is 210 °C (dec.).

Question: Which melting point does the source give for `COc1nc(Cl)c(Cl)nc1NS(=O)(=O)c1cccc(Cl)c1Cl` [Example 59, 2,3-Dichloro-N-(5,6-dichloro-3-methoxy-2-pyrazinyl)benzenesulphonamide] here?
Answer: Its melting point is 172 to 173 °C.

Question: Which melting point does the source give for `O=S(=O)(Nc1ncc(Cl)nc1OCc1ccc(CNC2CC2)o1)c1cccc(Cl)c1Cl` [Example 210, 2,3-Dichloro-N-[5-chloro-3-(5-cyclopropylaminomethyl-2-furanylmethoxy)-2-pyrazinyl]-benzenesulphonamide] here?
Answer: The melting point was 175 to 176 °C.

Question: For `N#Cc1cnc(NS(=O)(=O)c2cccc(Cl)c2Cl)c(OCc2cccnc2)n1` [Example 78, 2,3-Dichloro-N-[5-cyano-3-(3-pyridinylmethoxy)-2-pyrazinyl]benzenesulphonamide], which melting point is on record?
Answer: The melting point was 222 to 224 °C.

Question: For `Cc1c(Cl)cccc1S(=O)(=O)Nc1ncc(Cl)nc1OCc1cccnc1` [Example 95, 3-Chloro-N-[5-chloro-3-(3-pyridinylmethoxy)-2-pyrazinyl]-2-methylbenzenesulphonamide], which melting point is on record?
Answer: Its melting point is 192 to 193 °C.

Question: Which melting point does the source give for `COc1nc(Cl)c(Cl)nc1NS(=O)(=O)c1ccc(Cl)cc1` [Example 62, 4-Chloro-N-(5,6-dichloro-3-methoxy-2-pyrazinyl)benzenesulphonamide] here?
Answer: Its melting point is 186 to 187 °C.

Question: For `COc1nc(N2CCOCC2)cnc1NS(=O)(=O)c1cccc(Cl)c1Cl` [Example 55, 2,3-Dichloro-N-[3-methoxy-5-(4-morpholinyl)-2-pyrazinyl]benzenesulphonamide], which melting point is on record?
Answer: Its melting point is 167 to 168 °C.

Question: For `CNC(=O)CSc1cnc(NS(=O)(=O)c2cccc(Cl)c2Cl)c(OC)n1` [Example 168, 2-[5-(2,3-Dichlorobenzenesulphonylamino)-6methoxy-2-pyrazinylsulphanyl]-N-methylacetamide], which melting point is on record?
Answer: The melting point was 150 to 152 °C.

Question: For `COc1nc(C)cnc1NS(=O)(=O)c1cccc(Cl)c1C` [Example 43, 3-Chloro-N-(3-methoxy-5-methyl-2-pyrazinyl)-2-methylbenezenesulphonamide], which melting point is on record?
Answer: Its melting point is 133 to 135 °C.

Question: Which melting point does the source give for `Cc1nc(COc2nc(Cl)cnc2NS(=O)(=O)c2cccc(Cl)c2Cl)co1` [Example 144, 2,3-Dichloro-N-{5-chloro-3-[(2-methyl-4-oxazolyl)methoxy]-2-pyrazinyl}benzenesulphonamide] here?
Answer: The melting point was 172 to 173 °C.

Question: With `O=S(=O)(Nc1ncc(Br)nc1OCc1cnccn1)c1cccc(Cl)c1Cl` [Example 31, N-[5-Bromo-3-(2-pyrazinylmethoxy)-2-pyrazinyl]-2,3-dichlorobenzenesulphonamide] as the compound, how does the melting point read?
Answer: The melting point was 207 to 209 °C.

Question: With `COc1nc(Cl)cnc1NS(=O)(=O)c1cccc(Cl)c1` [Example 52, 3-Chloro-N-(5-chloro-3-methoxy-2-pyrazinyl)benzenesulphonamide] as the compound, how does the melting point read?
Answer: The melting point was 129 to 130 °C.

Question: For `COc1nc(N(C)C)c(Cl)nc1NS(=O)(=O)c1cccc(Cl)c1Cl` [Example 69, 2,3-Dichloro-N-[6-chloro-5-dimethylamino-3-methoxy-2-pyrazinyl]benzenesulphonamide], which melting point is on record?
Answer: Its melting point is 145 to 146 °C.

Question: Which melting point does the source give for `O=S(=O)(Nc1nccnc1OCc1ccccn1)c1cccc(Cl)c1Cl` [Example 28, 2,3-Dichloro-N-[3-(2-pyridinylmethoxy)-2-pyrazinyl]benzenesulphonamide] here?
Answer: The melting point was 167 to 168 °C.

Question: With `COc1nc(SCCN)cnc1NS(=O)(=O)c1cccc(Cl)c1Cl` [Example 173, N-[5-(2-Aminoethylsulphanyl)-3-methoxy-2-pyrazinyl]-2,3-dichlorobenzenesulphonamide] as the compound, how does the melting point read?
Answer: Its melting point is 189 to 190 °C.

Question: Which melting point does the source give for `COc1nc(OCc2ccc(CN(C)C)o2)cnc1NS(=O)(=O)c1cccc(Cl)c1Cl` [Example 175, 2,3-Dichloro-N-[5-(5-dimethylaminomethyl-2-furanylmethoxy)-3-methoxy-2-pyrazinyl]benzenesulphonamide] here?
Answer: Its melting point is 114 to 115 °C.

Question: Which melting point does the source give for `COC(=O)c1cnc(NS(=O)(=O)c2cccc(Cl)c2Cl)c(OC)n1` [Example 113, 5-(2,3-Dichlorobenzenesuphonylamino)-6-methoxypyrazine-2-carboxylic acid, methyl ester] here?
Answer: The melting point was 120 to 121 °C.
